25 compounds from US8399465B2, “Compounds with two fused bicyclic heteroaryl moieties as modulators of leukotriene A4 hydrolase” (Janssen Pharmaceutica NV, priority 2009, dated 2013) can be followed below.

For the test, the target named is T1, recombinant human LTA4 hydrolase (rhLTA4H) (Homo sapiens, UniProt P09960).
T1 construct: made in house; host or cells: Spodoptera frugiperda (Sf-9) cells, baculovirus (pFastBac1)
T1 sequence (P09960 1-611): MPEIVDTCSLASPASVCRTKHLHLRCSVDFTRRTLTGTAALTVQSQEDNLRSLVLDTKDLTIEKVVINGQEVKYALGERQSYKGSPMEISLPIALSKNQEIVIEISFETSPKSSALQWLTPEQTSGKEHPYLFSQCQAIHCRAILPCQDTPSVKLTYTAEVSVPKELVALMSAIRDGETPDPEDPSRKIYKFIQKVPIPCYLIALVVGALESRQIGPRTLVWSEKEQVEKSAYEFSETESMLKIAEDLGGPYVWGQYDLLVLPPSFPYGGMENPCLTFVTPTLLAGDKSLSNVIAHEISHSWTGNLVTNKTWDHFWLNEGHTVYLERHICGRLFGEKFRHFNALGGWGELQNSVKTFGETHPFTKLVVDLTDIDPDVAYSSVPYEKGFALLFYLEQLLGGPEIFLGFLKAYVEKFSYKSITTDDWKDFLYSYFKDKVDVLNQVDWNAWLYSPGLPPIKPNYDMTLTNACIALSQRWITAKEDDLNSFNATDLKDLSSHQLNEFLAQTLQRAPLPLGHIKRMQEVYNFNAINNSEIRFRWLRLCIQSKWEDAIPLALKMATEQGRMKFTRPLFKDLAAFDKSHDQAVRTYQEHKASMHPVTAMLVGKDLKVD
The test can be described thus: Recombinant human LTA4 hydrolase assay for LTA4 hydrolase inhibitor activity. The test is classed as biochemical. To be noted: rhLTA4H, LTB4 by immunoassay; single determination or average of two or more; mark after value = form tested: ′ free base, ″ hydrochloride, ^ formate; read-out: IC50. The protocol:
Assay 1: Recombinant Human LTA4 Hydrolase Assay for LTA4 Hydrolase Inhibitor Activity
Compounds of the present invention were tested for LTA4 hydrolase inhibitor activity against recombinant human LTA4 hydrolase (rhLTA4H). Vectors were prepared and used to express rhLTA4H essentially as follows: LTA4 hydrolase encoding DNA was amplified by polymerase chain reaction (PCR) using a human placental cDNA library as a template. […] The amplified 1.9 kb DNA fragment encoding LTA4 hydrolase was isolated and cloned into the pFastBac1 vector (Invitrogen). Recombinant baculovirus was generated as described by the manufacturer, and used to infect Spodoptera frugiperda (Sf-9) cells. […] The purified enzyme solution was adjusted to contain 0.29 mg/mL LTA4 hydrolase, 50 mM Tris (pH 8.0), 150 mM NaCl, 5 mM dithiothreitol, 50% glycerol, and EDTA-free Complete protease inhibitor cocktail (Roche).
LTA4 substrate was prepared from the methyl ester of LTA4 (Cayman Chemical) by treatment with 67 equiv of NaOH under nitrogen at rt for 40 min. The LTA4 substrate in its free acid form was kept frozen at −80° C. until needed. Each compound was diluted to different concentrations in assay buffer (from Assay Designs) containing 10% DMSO. A 25-μL aliquot of each compound dilution was incubated for 10 min at rt with an equal volume of assay buffer containing 10 ng of recombinant human LTA4H. The solution was then adjusted to 200 μL with assay buffer. […] Each reaction was carried out at rt for 30 min. The reaction was stopped by diluting 10 μL of the reaction mixture with 200 μL of assay buffer. LTB4 was quantified in the diluted sample by a commercially available enzyme-linked immunoassay (Cayman Chemical Co.), as recommended by the manufacturer. Positive controls, under essentially identical conditions but without addition of an inhibitor compound, and negative controls, containing all assay components except enzyme, were routinely run in each experiment. IC50 values were determined by nonlinear regression of the activity data at different compound concentrations using Graphpad Prism 4.0, one site binding competition.
The values presented here are the result of a single determination or an average of two or more determinations. Compounds that were not tested are indicated as such by a “NT” designation.

The structures appear in SMILES notation. Counter-ions that a name gives are not always drawn. Some results are limits rather than exact numbers.

In general, IC50 refers to the concentration needed to halve the response being measured. Regarding `c1cnc2nc(Oc3ccc4oc(CN5CCOCC5)cc4c3)sc2c1` [Example 97, 2-(2-Morpholin-4-ylmethyl-benzofuran-5-yloxy)-thiazolo[4,5-b]pyridine], the IC50 amounted to 0.194 µM.

In the case of `CC(=O)N1C[C@H]2CC[C@@H](C1)N2Cc1cc2ccc(Oc3nc4cccnc4s3)cc2o1` [Example 124, meso-1-{8-[6-(Thiazolo[5,4-b]pyridin-2-yloxy)-benzofuran-2-ylmethyl]-3,8-diaza-bicyclo[3.2.1]oct-3-yl}-ethanone], the IC50 was found to be 1.47 µM.

For `NC(=O)C1CCN(Cc2cc3ccc(Oc4nc5ncccc5s4)cc3s2)CC1` [Example 138, 1-[6-(Thiazolo[4,5-b]pyridin-2-yloxy)-benzo[b]thiophen-2-ylmethyl]-piperidine-4-carboxylic acid amide], the IC50 came out at 0.169 µM. Turning to `CCn1c(CN2CCCCC2)cc2cc(Oc3nc4ccccc4s3)ccc21` [Example 62, 2-(1-Ethyl-2-piperidin-1-ylmethyl-1H-indol-5-yloxy)-benzothiazole], the IC50 came out at 0.382 µM. In the case of `FC(F)(F)C1CCN(Cc2coc3cc(Oc4nc5ncccc5s4)ccc23)CC1` [Example 163, 2-[3-(4-Trifluoromethyl-piperidin-1-ylmethyl)-benzofuran-6-yloxy]-thiazolo[4,5-b]pyridine] it was 0.107 µM. As to `c1cnc(OC2CCN(Cc3cc4cc(Oc5nc6ncccc6s5)ccc4o3)CC2)nc1` [Example 89, 2-{2-[4-(Pyrimidin-2-yloxy)-piperidin-1-ylmethyl]-benzofuran-5-yloxy}-thiazolo[4,5-b]pyridine], the IC50 turned out to be 0.149 µM.

Turning to `CN(C)CCCN(C)C(=O)c1coc2cc(Oc3nc4ncccc4s3)ccc12` [Example 388, 6-(Thiazolo[4,5-b]pyridin-2-yloxy)-benzofuran-3-carboxylic acid (3-dimethylamino-propyl)-methyl-amide], the IC50 is 0.15 µM. In the case of `CC(=O)N1C[C@@H]2C[C@H]1CN2Cc1cc2ccc(Oc3nc4cnccc4s3)cc2o1` [Example 203, (1S,4S)-1-{5-[6-(Thiazolo[4,5-c]pyridin-2-yloxy)-benzofuran-2-ylmethyl]-2,5-diaza-bicyclo[2.2.1]hept-2-yl}-ethanone] it was 2.57 µM; in that of `CC(=O)N1CCC2(CCN(Cc3coc4cc(Oc5nc6ncccc6s5)ccc34)CC2)C1` [Example 265, 1-{8-[6-(Thiazolo[4,5-b]pyridin-2-yloxy)-benzofuran-3-ylmethyl]-2,8-diaza-spiro[4.5]dec-2-yl}-ethanone], below 0.001 µM. In the case of `CNC(=O)c1coc2cc(Oc3nc4ncccc4s3)ccc12` [Example 367, 6-(Thiazolo[4,5-b]pyridin-2-yloxy)-benzofuran-3-carboxylic acid methylamide], the IC50 stood at 0.16 µM. In the case of `CC(=O)N[C@H]1C[C@H]2CC[C@@H](C1)N2Cc1cc2ccc(Oc3nc4cnccc4s3)cc2o1` [Example 201, meso-endo-N-{8-[6-(Thiazolo[4,5-c]pyridin-2-yloxy)-benzofuran-2-ylmethyl]-8-aza-bicyclo[3.2.1]oct-3-yl}-acetamide] it was 0.236 µM.

`CC(=O)N1C[C@@H]2C[C@H]1CN2Cc1cc2cc(Oc3nc4cccnc4s3)ccc2o1` [Example 121, (1S,4S)-1-{5-[5-(Thiazolo[5,4-b]pyridin-2-yloxy)-benzofuran-2-ylmethyl]-2,5-diaza-bicyclo[2.2.1]hept-2-yl}-ethanone]: the concentration for half-maximal inhibition (IC50) was 0.488 µM.

For the compound `CCN(C(=O)c1coc2cc(Oc3nc4ncccc4s3)ccc12)C1CCCCC1` [Example 381, 6-(Thiazolo[4,5-b]pyridin-2-yloxy)-benzofuran-3-carboxylic acid cyclohexyl-ethyl-amide], the IC50 came to 0.11 µM. Under `CC(=O)N1C[C@@H]2C[C@H]1CN2Cc1cc2ccc(Oc3nc4cccnc4s3)cc2o1` [Example 122, (1S,4S)-1-{5-[6-(Thiazolo[5,4-b]pyridin-2-yloxy)-benzofuran-2-ylmethyl]-2,5-diaza-bicyclo[2.2.1]hept-2-yl}-ethanone] stands 3.43 µM; under `O=C(O)CN1CCN(Cc2cc3ccc(Oc4nc5ccccc5s4)cc3o2)CC1` [Example 79, {4-[6-(Benzothiazol-2-yloxy)-benzofuran-2-ylmethyl]-piperazin-1-yl}-acetic acid formate], 0.46 µM; under `O=C(Cc1ccc(Cl)cc1)NCc1coc2cc(Oc3nc4ncccc4s3)ccc12` [Example 394, 2-(4-Chloro-phenyl)-N-[6-(thiazolo[4,5-b]pyridin-2-yloxy)-benzofuran-3-ylmethyl]-acetamide], 0.085 µM. Take `c1cnc(N2CCN(Cc3coc4cc(Oc5nc6ncccc6s5)ccc34)CC2)nc1` [Example 292, 2-[3-(4-Pyrimidin-2-yl-piperazin-1-ylmethyl)-benzofuran-6-yloxy]-thiazolo[4,5-b]pyridine formate]: the half-inhibitory concentration (IC50) amounted to 0.04 µM. Turning to `CC(=O)N1C[C@@H]2C[C@H]1CN2Cc1cc2ncc(Oc3nc4ncccc4s3)cc2o1` [Example 274, (1S,4S)-1-{5-[6-(Thiazolo[4,5-b]pyridin-2-yloxy)-furo[3,2-b]pyridin-2-ylmethyl]-2,5-diaza-bicyclo[2.2.1]hept-2-yl}-ethanone formate], the IC50 is 0.25 µM. In the case of `CC(=O)N[C@H]1C[C@H]2CC[C@@H](C1)N2CCc1coc2cc(Oc3nc4ncccc4s3)ccc12` [Example 131, meso-endo-N-(8-{2-[6-(Thiazolo[4,5-b]pyridin-2-yloxy)-benzofuran-3-yl]-ethyl}-8-aza-bicyclo[3.2.1]oct-3-yl)acetamide] it was 0.005 µM; in that of `CC(=O)N1CCN(Cc2cc3ncc(Oc4nc5ncccc5s4)cc3o2)CC1` [Example 343, 1-{4-[6-(Thiazolo[4,5-b]pyridin-2-yloxy)-furo[3,2-b]pyridin-2-ylmethyl]-piperazin-1-yl}-ethanone formate], 0.25 µM. In the case of `CC(=O)N[C@H]1C[C@H]2CC[C@@H](C1)N2Cc1cc2cc(Oc3nc4cnccc4s3)ccc2o1` [Example 200, meso-endo-N-{8-[5-(Thiazolo[4,5-c]pyridin-2-yloxy)-benzofuran-2-ylmethyl]-8-aza-bicyclo[3.2.1]oct-3-yl}-acetamide formate] it was 1.13 µM. In the case of `O=C(c1ccccc1)C1CCN(C(=O)c2coc3cc(Oc4nc5ncccc5s4)ccc23)CC1` [Example 387, (4-Benzoyl-piperidin-1-yl)-[6-(thiazolo[4,5-b]pyridin-2-yloxy)-benzofuran-3-yl]-methanone], the concentration for half-maximal inhibition (IC50) was 0.15 µM. In the case of `c1cnc2nc(Oc3ccc4cc(CN5CC6COCC6C5)oc4c3)sc2c1` (stereo not shown) [Example 110, 2-[2-(Tetrahydro-furo[3,4-c]pyrrol-5-ylmethyl)-benzofuran-6-yloxy]-thiazolo[4,5-b]pyridine formate] it was 0.207 µM.

Take `CC(=O)N[C@@H]1C[C@H]2CC[C@@H](C1)N2Cc1cc2ncc(Oc3nc4ncccc4s3)cc2o1` [Example 336, meso-exo-N-{8-[6-(Thiazolo[4,5-b]pyridin-2-yloxy)-furo[3,2-b]pyridin-2-ylmethyl]-8-aza-bicyclo[3.2.1]oct-3-yl}-acetamide]: the IC50 was 0.11 µM. Consider `FC1CCN(Cc2cc3ccc(Oc4nc5ncccc5s4)cc3o2)CC1` [Example 190, 2-[2-(4-Fluoro-piperidin-1-ylmethyl)-benzofuran-6-yloxy]-thiazolo[4,5-b]pyridine formate], for which the IC50 came out at 0.116 µM.
